Laboratory results reported in a compilation of properties of binary mixtures (doi:10.1039/b315616h).

Assay: xn = mol fraction of the nth substance listed
Settings: 101.3 kPa, x2 = 0.865

CCCCCC[n+]1ccn(C)c1.F[B-](F)(F)F + CCCCCO
Settings | viscosity [mPa·s]
314.94 K | 5.47
315.04 K | 5.22
315.1 K | 5.14
315.15 K | 5.09
315.2 K | 5.04
315.24 K | 5
315.3 K | 4.96
315.44 K | 4.87
315.54 K | 4.83
315.58 K | 4.8
315.71 K | 4.76
315.75 K | 4.74
315.88 K | 4.7
315.91 K | 4.69
315.94 K | 4.68
315.98 K | 4.67
316.07 K | 4.64
316.22 K | 4.6
316.42 K | 4.54
316.73 K | 4.46
317.23 K | 4.35
319.34 K | 3.98
321.14 K | 3.74
323.16 K | 3.51
325.69 K | 3.262
328.15 K | 3.047
